Experimental data published in patent publication US8802597B2, “Herbicidal pyrimidines” (E I du Pont de Nemours and Company, priority 2003, dated 2014).
Read-outs that look alike come from different tables or passages of the source.

Legend:
Assay type in all cases: in vivo
[1] = system: Surinam grass (Brachiaria decumbens); test: Test B pre/postemergence; conditions: Urochloa decumbens; for pest or weed control at 125 g/ha: 125 g ai/ha; for pest or weed control at 500 g/ha: 500 g ai/ha
Summary of the method: (§1)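 Scores reflect visual comparison with untreated controls, where 0 means no effect and 100 complete control. Plants stayed 13 to 15 days in the greenhouse after pre- or postemergence treatment with compounds carried in a non-phytotoxic solvent and surfactant.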

[2] = system: barnyardgrass (Echinochloa crus-galli); test: Test B pre/postemergence; conditions: Echinochloa crus-galli; for pest or weed control at 125 g/ha: 125 g ai/ha; for pest or weed control at 500 g/ha: 500 g ai/ha
Summary of the method: as §1

[3] = system: cocklebur (Xanthium strumarium); test: Test B pre/postemergence; conditions: Xanthium strumarium; for pest or weed control at 125 g/ha: 125 g ai/ha; for pest or weed control at 500 g/ha: 500 g ai/ha
Summary of the method: as §1

corn (Zea mays) = test: Test B pre/postemergence; conditions: Zea mays
Summary of the method: as §1

[4] = system: crabgrass (Digitaria sanguinalis); test: Test B pre/postemergence; conditions: Digitaria sanguinalis; for pest or weed control at 125 g/ha: 125 g ai/ha; for pest or weed control at 500 g/ha: 500 g ai/ha
Summary of the method: as §1

[5] = system: giant foxtail (Setaria faberii); test: Test B pre/postemergence; conditions: Setaria faberi; for pest or weed control at 125 g/ha: 125 g ai/ha; for pest or weed control at 500 g/ha: 500 g ai/ha
Summary of the method: as §1

[6] = system: lambsquarters (Chenopodium album); test: Test B pre/postemergence; conditions: Chenopodium album; for pest or weed control at 125 g/ha: 125 g ai/ha; for pest or weed control at 500 g/ha: 500 g ai/ha
Summary of the method: as §1

[7] = system: morningglory (Ipomoea coccinea); test: Test B pre/postemergence; conditions: Ipomoea; for pest or weed control at 125 g/ha: 125 g ai/ha; for pest or weed control at 500 g/ha: 500 g ai/ha
Summary of the method: as §1

[8] = system: pigweed (Amaranthus retroflexus); test: Test B pre/postemergence; conditions: Amaranthus retroflexus; for pest or weed control at 125 g/ha: 125 g ai/ha; for pest or weed control at 500 g/ha: 500 g ai/ha
Summary of the method: as §1

[9] = system: velvetleaf (Abutilon theophrasti); test: Test B pre/postemergence; conditions: Abutilon theophrasti; for pest or weed control at 125 g/ha: 125 g ai/ha; for pest or weed control at 500 g/ha: 500 g ai/ha
Summary of the method: as §1

[10] = system: wheat (Triticum aestivum); test: Test B pre/postemergence; conditions: Triticum aestivum; for plant injury at 125 g/ha: 125 g ai/ha; for plant injury at 500 g/ha: 500 g ai/ha
Summary of the method: as §1

[11] = system: blackgrass (Alopecurus myosuroides); test: Test B postemergence; conditions: Alopecurus myosuroides, post-emergence
Summary of the method: as §1

wild oat (Avena fatua) = test: Test B postemergence; conditions: Avena fatua, post-emergence
Summary of the method: as §1

[12] = system: barnyardgrass (Echinochloa crus-galli); test: Test B flooded paddy test; conditions: Echinochloa crus-galli, Flood, 1000 g ai/ha; scale 0 (no effect) to 100 (complete control); read-out: Plant response rating, Barnyardgrass
Summary of the method: (§2)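 Plants were grown to the 2-leaf stage before treatment, then kept in a greenhouse for 13 to 15 days. Injury was rated visually against untreated controls on a 0 to 100 scale, where 0 is no effect and 100 is complete control.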

[13] = system: duck salad (Heteranthera limosa); test: Test B flooded paddy test; conditions: Heteranthera limosa, Flood, 1000 g ai/ha; scale 0 to 100; read-out: Plant response rating, Ducksalad
Summary of the method: as §2

rice (Oryza sativa) = test: Test B flooded paddy test; conditions: Oryza sativa, Flood, 1000 g ai/ha; scale 0 to 100; read-out: Plant response rating, Rice
Summary of the method: as §2

[14] = system: umbrella sedge (Cyperus difformis); test: Test B flooded paddy test; conditions: Cyperus difformis, Flood, 1000 g ai/ha; scale 0 to 100; read-out: Plant response rating, Sedge, Umbrella
Summary of the method: as §2

Work on `COC(=O)c1nc(C(C)C)nc(N)c1Br` [Compound 3] yielded a pest or weed control at 125 g/ha ([1]; post-emergence, Postemergence, scale 0 to 100 (0 no effect, 100 complete control), read-out: Surinam Grass plant response rating) of 10%, a pest or weed control at 500 g/ha ([1]; post-emergence, Postemergence, scale 0 to 100, read-out: Plant response rating, Surinam Grass) of 30% and a pest or weed control at 125 g/ha ([1]; pre-emergence, Preemergence, scale 0 to 100 (0 no effect, 100 complete control), read-out: Plant response rating, Surinam Grass) of 0%. The pest or weed control at 500 g/ha ([1]; pre-emergence, Preemergence, scale 0 to 100 (0 no effect, 100 complete control), read-out: Surinam Grass plant response rating) was 20%, the pest or weed control at 125 g/ha ([2]; post-emergence, Postemergence, scale 0 to 100 (0 no effect, 100 complete control), read-out: Barnyardgrass plant response rating) was 0% and the pest or weed control at 500 g/ha ([2]; post-emergence, Postemergence, scale 0 to 100, read-out: Plant response rating, Barnyardgrass) was 10%. It also gave a pest or weed control at 125 g/ha ([2]; pre-emergence, Preemergence, scale 0 to 100 (0 no effect, 100 complete control), read-out: Plant response rating, Barnyardgrass) of 0%, a pest or weed control at 500 g/ha ([2]; pre-emergence, Preemergence, scale 0 to 100 (0 no effect, 100 complete control), read-out: Barnyardgrass plant response rating) of 0% and a pest or weed control at 125 g/ha ([3]; post-emergence, Postemergence, scale 0 to 100 (0 no effect, 100 complete control), read-out: Cocklebur plant response rating) of 70%. It also gave a pest or weed control at 500 g/ha ([3]; post-emergence, Postemergence, scale 0 to 100, read-out: Plant response rating, Cocklebur) of 100%, a pest or weed control at 125 g/ha ([3]; pre-emergence, Preemergence, scale 0 to 100 (0 no effect, 100 complete control), read-out: Plant response rating, Cocklebur) of 80% and a pest or weed control at 500 g/ha ([3]; pre-emergence, Preemergence, scale 0 to 100 (0 no effect, 100 complete control), read-out: Cocklebur plant response rating) of 80%. For the same compound, the plant injury at 125 g/ha (corn (Zea mays); post-emergence, Postemergence, 125 g ai/ha, scale 0 to 100 (0 no effect, 100 complete control), read-out: Corn plant response rating) was 0%, the Corn plant response rating (crop injury, 0 = no effect, 100 = complete kill) at 500 g/ha (corn (Zea mays); post-emergence, Postemergence, 500 g ai/ha, scale 0 to 100) was 0% and the Corn plant response rating (crop injury, 0 = no effect, 100 = complete kill) at 125 g/ha (corn (Zea mays); pre-emergence, Preemergence, 125 g ai/ha, scale 0 to 100 (0 no effect, 100 complete control)) was 0%. For the same compound, the plant injury at 500 g/ha (corn (Zea mays); pre-emergence, Preemergence, 500 g ai/ha, scale 0 to 100 (0 no effect, 100 complete control), read-out: Corn plant response rating) was 0%, the pest or weed control at 125 g/ha ([4]; post-emergence, Postemergence, scale 0 to 100 (0 no effect, 100 complete control), read-out: Crabgrass plant response rating) was 30% and the pest or weed control at 500 g/ha ([4]; post-emergence, Postemergence, scale 0 to 100, read-out: Plant response rating, Crabgrass) was 40%. It also gave a pest or weed control at 125 g/ha ([4]; pre-emergence, Preemergence, scale 0 to 100 (0 no effect, 100 complete control), read-out: Plant response rating, Crabgrass) of 10%, a pest or weed control at 500 g/ha ([4]; pre-emergence, Preemergence, scale 0 to 100 (0 no effect, 100 complete control), read-out: Crabgrass plant response rating) of 50% and a pest or weed control at 125 g/ha ([5]; post-emergence, Postemergence, scale 0 to 100 (0 no effect, 100 complete control), read-out: Foxtail, Giant plant response rating) of 20%. The pest or weed control at 500 g/ha ([5]; post-emergence, Postemergence, scale 0 to 100, read-out: Plant response rating, Foxtail, Giant) was 40%, the pest or weed control at 125 g/ha ([5]; pre-emergence, Preemergence, scale 0 to 100 (0 no effect, 100 complete control), read-out: Plant response rating, Foxtail, Giant) was 0% and the pest or weed control at 500 g/ha ([5]; pre-emergence, Preemergence, scale 0 to 100 (0 no effect, 100 complete control), read-out: Foxtail, Giant plant response rating) was 0%. It also gave a pest or weed control at 125 g/ha ([6]; post-emergence, Postemergence, scale 0 to 100 (0 no effect, 100 complete control), read-out: Lambsquarters plant response rating) of 100%, a pest or weed control at 500 g/ha ([6]; post-emergence, Postemergence, scale 0 to 100, read-out: Plant response rating, Lambsquarters) of 100% and a pest or weed control at 125 g/ha ([6]; pre-emergence, Preemergence, scale 0 to 100 (0 no effect, 100 complete control), read-out: Plant response rating, Lambsquarters) of 70%. The pest or weed control at 500 g/ha ([6]; pre-emergence, Preemergence, scale 0 to 100 (0 no effect, 100 complete control), read-out: Lambsquarters plant response rating) was 90%, the pest or weed control at 125 g/ha ([7]; post-emergence, Postemergence, scale 0 to 100 (0 no effect, 100 complete control), read-out: Morningglory plant response rating) was 80% and the pest or weed control at 500 g/ha ([7]; post-emergence, Postemergence, scale 0 to 100, read-out: Plant response rating, Morningglory) was 100%. For the same compound, the pest or weed control at 125 g/ha ([7]; pre-emergence, Preemergence, scale 0 to 100 (0 no effect, 100 complete control), read-out: Plant response rating, Morningglory) was 50%, the pest or weed control at 500 g/ha ([7]; pre-emergence, Preemergence, scale 0 to 100 (0 no effect, 100 complete control), read-out: Morningglory plant response rating) was 60% and the pest or weed control at 125 g/ha ([8]; post-emergence, Postemergence, scale 0 to 100 (0 no effect, 100 complete control), read-out: Pigweed plant response rating) was 80%. The pest or weed control at 500 g/ha ([8]; post-emergence, Postemergence, scale 0 to 100, read-out: Plant response rating, Pigweed) was 90%, the pest or weed control at 125 g/ha ([8]; pre-emergence, Preemergence, scale 0 to 100 (0 no effect, 100 complete control), read-out: Plant response rating, Pigweed) was 80% and the pest or weed control at 500 g/ha ([8]; pre-emergence, Preemergence, scale 0 to 100 (0 no effect, 100 complete control), read-out: Pigweed plant response rating) was 90%. The pest or weed control at 125 g/ha ([9]; post-emergence, Postemergence, scale 0 to 100 (0 no effect, 100 complete control), read-out: Velvetleaf plant response rating) was 50%, the pest or weed control at 500 g/ha ([9]; post-emergence, Postemergence, scale 0 to 100, read-out: Plant response rating, Velvetleaf) was 80% and the pest or weed control at 125 g/ha ([9]; pre-emergence, Preemergence, scale 0 to 100 (0 no effect, 100 complete control), read-out: Plant response rating, Velvetleaf) was 40%. For the same compound, the pest or weed control at 500 g/ha ([9]; pre-emergence, Preemergence, scale 0 to 100 (0 no effect, 100 complete control), read-out: Velvetleaf plant response rating) was 70%, the plant injury at 125 g/ha ([10]; post-emergence, Postemergence, scale 0 to 100 (0 no effect, 100 complete control), read-out: Wheat plant response rating) was 10% and the plant injury at 500 g/ha ([10]; post-emergence, Postemergence, scale 0 to 100, read-out: Plant response rating, Wheat) was 20%. It also gave a plant injury at 125 g/ha ([10]; pre-emergence, Preemergence, scale 0 to 100 (0 no effect, 100 complete control), read-out: Plant response rating, Wheat) of 0%, a plant injury at 500 g/ha ([10]; pre-emergence, Preemergence, scale 0 to 100 (0 no effect, 100 complete control), read-out: Wheat plant response rating) of 0% and a pest or weed control at 125 g/ha ([11]; 125 g ai/ha, scale 0 to 100 (0 no effect, 100 complete control), read-out: Blackgrass plant response rating) of 20%. The pest or weed control at 500 g/ha ([11]; 500 g ai/ha, scale 0 to 100, read-out: Plant response rating, Blackgrass) was 50%, the pest or weed control at 125 g/ha (wild oat (Avena fatua); 125 g ai/ha, scale 0 to 100 (0 no effect, 100 complete control), read-out: Oat, Wild plant response rating) was 10% and the pest or weed control at 500 g/ha (wild oat (Avena fatua); 500 g ai/ha, scale 0 to 100, read-out: Plant response rating, Oat, Wild) was 30%. For the same compound, the pest or weed control at 1000 g/ha [12] was 0%, the pest or weed control at 1000 g/ha [13] was 0% and the plant injury at 1000 g/ha (rice (Oryza sativa)) was 0%. The pest or weed control at 1000 g/ha [14] was 0%.
